Target: Endothelin-1 receptor (Oryctolagus cuniculus)
Assay: Tested for antagonistic activity against Endothelin A receptor in the rabbit renal artery vascular smooth muscle cells.

Structure (SMILES)	IC50
COc1ccc(CC2=C(c3ccc(Cl)c(Cl)c3)C(=O)OC2(O)c2ccc(OC)cc2)cc1 (configuration not stated) [3-(3,4-Dichloro-phenyl)-5-hydroxy-4-(4-methoxy-benzyl)-5-(4-methoxy-phenyl)-5H-furan-2-one]	310 nM
COc1ccc(C2(O)OC(=O)C(c3ccc4c(c3)OCO4)=C2Cc2ccc(OC)c(C)c2)cc1 (configuration not stated) [3-Benzo[1,3]dioxol-5-yl-5-hydroxy-4-(4-methoxy-3-methyl-benzyl)-5-(4-methoxy-phenyl)-5H-furan-2-one]	6 nM
